This note sets out measurements from patent publication US7902367B2, “Cyclic amino benzoic acid derivative” (Kyorin Pharmaceutical Co., Ltd., priority 2004, dated 2011).

This test concerns the target T1, human PPARα (Homo sapiens, UniProt Q07869).
T1 construct: expressed in transfected cells; host or cells: CHO-K1 cells
T1 sequence (Q07869 239-466 limits assumed): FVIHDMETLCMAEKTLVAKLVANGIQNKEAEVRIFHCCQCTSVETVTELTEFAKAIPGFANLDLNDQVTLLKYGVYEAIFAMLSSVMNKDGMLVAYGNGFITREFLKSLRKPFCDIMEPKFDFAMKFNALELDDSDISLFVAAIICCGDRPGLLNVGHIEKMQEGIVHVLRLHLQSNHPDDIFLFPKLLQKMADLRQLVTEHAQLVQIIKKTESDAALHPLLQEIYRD
Nature of the test: Activation of transcription of human PPARα (Gal4-PPARα LBD luciferase reporter assay in CHO-K1 cells). The following applies: CHO-K1 cells cotransfected with Gal4 DNA-binding domain/human PPARα ligand-binding domain receptor plasmid, firefly luciferase reporter and renilla internal standard; 20 hours at 37° C. The test is classed as cell-based. The source says: Activation of Transcription of Human Peroxisome Proliferator-Activated Receptor (PPAR) α
CHO-K1 cells cultured in Ham's F12 medium supplemented with 10% fetal calf serum were cotransfected with the following plasmids: A receptor plasmid encoding a fusion protein consisting of the DNA-binding domain of yeast transcription factor Gal4 fused to the ligand-binding domain of human PPARα (Biochemistry, 1993, 32, 5598), a reporter plasmid (STRATAGENE, firefly luciferase reporter plasmid), and a renilla luciferase plasmid for internal standard (Promega). The cotransfection was performed over a 2-hour period by using Lipofectamine (INVITROGEN) in the absence of serum. Subsequently, a test compound was added in Ham's F12 medium supplemented with 10% defatted bovine serum. The cells were then incubated at 37° C. for 20 hours. The activity of each luciferase was then determined and corrected for internal standard.
A general note: In a reporter assay the amount or activity of a reporter protein is the signal.

For `Cc1nc(-c2ccc(Cl)cc2)sc1C(=O)NCC1CCCN(c2cccc(C(=O)O)c2)C1` (stereo not shown) [Example 19], the 50% effective concentration (EC50) was 970 nM.

`Cc1nc(-c2ccc(Cl)cc2)sc1COC1CCCN(c2cccc(C(=O)O)c2)C1` (stereo not shown) [Example 25] yielded a half-maximal effective concentration (EC50) of 560 nM.

For the compound `Cc1nc(-c2ccc(Cl)cc2)sc1C(=O)NC1CCCN(c2cccc(C(=O)O)c2)C1` (stereo not shown) [Example 32], the concentration giving a half-maximal response (EC50) was 20 nM.

Consider `Cc1nc(-c2ccc(Cl)cc2)sc1COCC1CCCN(c2cccc(C(=O)O)c2)C1` (stereo not shown) [Example 24], for which a half-maximal effect (EC50) was put at 1540 nM.

Take `Cc1nc(-c2ccc(Cl)cc2)sc1COCC1CCCN(c2ccccc2C(=O)O)C1` (stereo not shown) [Example 22]: a half-maximal response (EC50) required 160 nM.

In turn, `Cc1nc(-c2ccc(Cl)cc2)sc1C(=O)NCC1CCCN(c2ccccc2C(=O)O)C1` (stereo not shown) [Example 18, 2-[3-[[2-(4-Chlorophenyl)-4-methylthiazol-5-yl]carbonylaminomethyl]piperidin-1-yl]benzoic acid] displayed an EC50 of 65 nM.

Regarding `Cc1nc(-c2ccc(Cl)cc2)sc1CNC(=O)C1CCCN(c2ccccc2C(=O)O)C1` (stereo not shown) [Example 20], the EC50 was 1360 nM.

As a reminder, the EC50 is the midpoint of the concentration-response curve. Lower therefore signals a more potent agent.
